The subject of assay [1] is DMS79 cells. The assay is described as follows: Annexin V conjugate / SYTOX Blue flow cytometric analysis of apoptosis. The conditions noted are these: 24 h, n = 3. The class given is cell-based, human. Here is the method: The novel potent N^ind-butylated peptide, 16, and its unmodified version 1 [26] were incubated for 24 h with DMS79 cells and double stained using Annexin V Fluor® 555 (AnnV) conjugate and SYTOX® Blue (SyB) dead cell stain [29], [32]. The former stain binds to phosphatidyl serine (PS) residues that become exposed at the outer surface of the plasma membrane of cells undergoing apoptosis. DMS79 cell line was selected as a variant cell line model more resistant to chemotherapy since it is established from a SCLC patient treated with three different chemotherapeutics and radiation therapy. Peptide 16 was the most cytotoxic against this cell line (Table 1).
Quantitative assessment of apoptosis was evaluated at low (2 μM) and high (6 μM) peptide concentrations using flow cytometry. A bar-chart (Fig. 6) presents the levels of cells classified into four stages; live cells (AnnV-/SyB-), early apoptotic cells (AnnV+/SyB-), late apoptotic cells (AnnV+/SyB+) and necrotic cells (AnnV-/SyB+). Dot blots are presented in the SD (Fig. S37). […] In contrast, the singly butylated peptide (16) caused highly significant (P < 0.0005) apoptosis in a concentration dependent manner. Even at a low concentration of peptide (2 μM), a small increase (P < 0.05) of early apoptotic cells was observed relative to the control sample.
The experiment was performed according to manufacturer's instructions. Briefly, DMS79 cells were seeded in 12-well plates at a seeding density of 1 × 10^5 cells/well/1980 μl complete medium. Negative control (untreated), peptides at final well concentrations of 2 and 6 μM were prepared and incubated as the above conditions stated in Section 5.1 for 24 h (total volume of wells was 2 ml). The contents of the wells were then carefully transferred into Eppendorf® tubes and centrifuged for 5 min at 500 rpm and the media discarded. Cells pellets were washed with cold PBS. Cells were gently re-suspended in 100 μl annexin-binding buffer followed by the addition of 5 μl of the Annexin V conjugate (Alexa Fluor® 555) and 0.5 μl of dead cell stain (SYTOX® Blue). Tubes were left for 10 min at RT, then 400 μl of annexin-binding buffer were added and samples were analysed on a flow cytometer (BD Biosciences - LSR Fortessa; Diva 8.0.1 software; Annexin V conjugate was excited with 561 nm laser and fluorescence measured using a 586/15 nm bandpass filter; dead cell stain was excited with 405 nm laser and fluorescence measured using 450/50 nm bandpass filter). Assays were repeated three independent times.

Another assay relates to H69 and DMS79 cells. Further details: method as in PMID 30108771. The conditions noted are these: range over both cell lines; read-out: IC50 values in the range against H69 and DMS79; cited from earlier work.
The test system of another assay is H69 cells. Set-up: method as in PMID 30108771. The conditions noted are these: treatment for 48 h; obtained previously; read-out: IC50 ± SE, H69 Cells; cited from earlier work.
In assay [2] the test system is DMS79 cells. Further details: method as in PMID 30108771. Particulars: treatment for 48 h; obtained previously; read-out: IC50 ± SE, DMS79 Cells; cited from earlier work.

Where a SMILES comes first, the peptide text is derived from it. [ ]: non-standard residue; d: D form. dNMeF = CN[C@H](Cc1ccccc1)C(=O)O

With `CN[C@H](Cc1ccccc1)C(=O)N[C@H](Cc1c[nH]c2ccccc12)C(=O)N[C@@H](Cc1ccccc1)C(=O)N[C@H](Cc1c[nH]c2ccccc12)C(=O)N[C@@H](CC(C)C)C(N)=O` [Peptide 1, DMePhe-DTrp-Phe-DTrp-Leu-NH2] (H-[dNMeF][dW]F[dW]L-NH2; N-terminus assumed), in the assay on DMS79 cells [1] (DMS79, 2 μM), the “% events, early apoptotic cells (AnnV+/SyB-)” value is 6.2%; the “% events, late apoptotic cells (AnnV+/SyB+)” value turned out to be 23.9%; the “% events, live cells (AnnV-/SyB-)” value came to 67.6%; the “% events, necrotic cells (AnnV-/SyB+)” value amounted to 2.3%. Besides, in the assay with DMS79 cells [1] (DMS79, 6 μM), the “% events, early apoptotic cells (AnnV+/SyB-)” value was determined as 6.6%; the “% events, late apoptotic cells (AnnV+/SyB+)” value is reported as 22.9%; the “% events, live cells (AnnV-/SyB-)” value is listed as 68.3%; the “% events, necrotic cells (AnnV-/SyB+)” value is on record as 2.2%. For the same molecule, the IC50 in the assay with H69 and DMS79 cells was 23 to 31 µM.
Consider “[Arg^6,D-Trp^7,9,MePhe^8]SP (6–11) [SPG]”, for which the IC50 in the assay with H69 cells and in the assay with DMS79 cells [2] was more than 30 µM throughout.

As usually defined, the IC50 is the concentration needed to halve the response being measured.

(Values after publication PMC5500990 (European Journal of Medicinal Chemistry, 2017).)
